Our source for the IC50 values is patent publication US20090023773A1, “COMPOSITIONS AND METHODS FOR MODULATING GATED ION CHANNELS” (PainCeptor Pharma Corporation, priority 2007, published 2009).

The term IC50 denotes the concentration that inhibits the measured activity by half.

The target of one test is T1, recombinant homomeric hASIC1a channels (Homo sapiens, UniProt P78348).
T1 construct: expressed in transfected cells; host or cells: Xenopus laevis oocytes (nuclear microinjection of expression vector such as pcDNA3)
T1 sequence (P78348 1-528): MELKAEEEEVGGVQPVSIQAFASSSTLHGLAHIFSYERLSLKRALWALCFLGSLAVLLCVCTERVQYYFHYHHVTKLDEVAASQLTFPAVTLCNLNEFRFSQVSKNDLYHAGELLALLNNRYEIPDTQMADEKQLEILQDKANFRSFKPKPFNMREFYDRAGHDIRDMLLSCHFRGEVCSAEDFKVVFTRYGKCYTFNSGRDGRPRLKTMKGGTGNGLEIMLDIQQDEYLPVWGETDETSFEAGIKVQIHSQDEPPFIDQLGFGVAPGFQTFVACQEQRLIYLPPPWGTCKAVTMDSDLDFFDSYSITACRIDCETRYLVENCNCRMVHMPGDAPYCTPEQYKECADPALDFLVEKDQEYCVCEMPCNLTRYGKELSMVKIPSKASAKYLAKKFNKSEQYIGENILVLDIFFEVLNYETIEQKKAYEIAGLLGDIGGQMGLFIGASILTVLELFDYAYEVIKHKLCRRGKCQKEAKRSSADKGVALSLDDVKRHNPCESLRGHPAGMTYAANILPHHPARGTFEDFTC
Nature of the test: Two-electrode voltage clamp in Xenopus laevis oocytes expressing gated ion channels (Example 4). The test is classed as cell-based. To be noted: Table 1; generated using oocytes as in Example 4.
As for `Cc1cc(OC2CCN(Cc3ccccc3)CC2)c2cccc(O)c2n1` [Compound 21], the IC50 was above 30 µM. Still for that read-out and setting: the result for `COc1cccc(CN2CCC(Oc3cc(C)nc4ccccc34)CC2)c1` [Compound 14] reads 0.1 to 10 µM; that for `Cc1cc(OC2CCN(Cc3cccnc3)CC2)c2cccc(F)c2n1` [Compound 3], 0.1 to 10 µM. As for `Cc1cc(OC2CCN(Cc3ccc(O)cc3)CC2)c2cccc(F)c2n1` [Compound 26, 4-((4-(8-fluoro-2-methylquinolin-4-yloxy)piperidin-1-yl)methyl)phenol], the IC50 lay within 0.1 to 10 µM. Same read-out and setting: the figure for `Cc1cc(OC2CCN(Cc3ccccc3C#N)CC2)c2cccc(F)c2n1` [Compound 17] is 0.1 to 10 µM; for `Cc1cc(OC2CCN(Cc3ccccc3C(=O)O)CC2)c2cc(O)ccc2n1` [Compound 24] it is above 30 µM. As to `Cc1cc(OC2CCN(Cc3c(F)cccc3C(=O)O)CC2)c2cccc(F)c2n1` [Compound 23], the IC50 was above 30 µM.

Regarding `Cc1cc(OC2CCCN(Cc3ccccc3)C2)c2ccccc2n1` (stereo not drawn) [Compound 19], the IC50 was above 30 µM. Turning to `Cc1cc(OC2CC(C)(C)N(Cc3ccccc3)C(C)(C)C2)c2ccccc2n1` [Compound 4], the IC50 was above 30 µM. As to `Cc1cc(OC2CCN(Cc3cccc(O)c3)CC2)c2ccccc2n1` [Compound 22], the IC50 was in the range of 0.1 to 10 µM. On the same count and under the same terms, the figure for `Cc1nc(OC2CCN(Cc3ccccc3C#N)CC2)c2ccccc2n1` [Compound 9] is above 30 µM; for `Cc1cc(OC2CCN(C(C)c3ccccc3C(=O)O)CC2)c2cccc(F)c2n1` (stereo not drawn) [Compound 15] it is 0.1 to 10 µM; for `COc1cccc2c(OC3CCN(Cc4ccccc4)CC3)cc(C)nc12` [Compound 11] it is 0.1 to 10 µM. On the same count and under the same terms, the figure for `C=CCOC(=O)N1CCC(Oc2nc(C)nc3ccccc23)CC1` [Compound 10] is 0.1 to 10 µM; for `Cc1cc(OC2CCN(Cc3cccnc3C(=O)O)CC2)c2cccc(F)c2n1` [Compound 25] it is above 30 µM; for `Cc1cc(OC2CCN(Cc3ccccc3F)C(C)C2)c2ccccc2n1` (stereo not drawn) [Compound 5] it is 0.1 to 10 µM. Same read-out and setting: the result for `O=C(O)c1cc(OC2CCN(Cc3ccccc3)CC2)c2ccccc2n1` [Compound 12] reads 20.1 to 30 µM; that for `Cc1cc(O[C@H]2CCCN(Cc3ccccc3)C2)c2ccccc2n1` [Compound 20], above 30 µM; that for `Cc1nc(OC2CCN(Cc3ccccc3F)CC2)c2ccccc2n1` [Compound 8], above 30 µM.

The test is the same for the next values; noted with them: Table 2; generated using oocytes as in Example 4.
On to `Cc1cc(OC2CCN(Cc3ccccc3)CC2)c2cc(-c3nnn[nH]3)ccc2n1` [Compound 58], for which the IC50 was above 30 µM. On the same count and under the same terms, the figure for `Cc1cc(OC2CCN(Cc3ccc(O)c(O)c3)CC2)c2ccccc2n1` [Compound 88] is 0.1 to 10 µM; for `COc1cccc2c(OC3CCN(Cc4ccccc4-c4nnn[nH]4)CC3)cc(C)nc12` [Compound 93] it is 20.1 to 30 µM; for `Cc1cc(OC2CCN(Cc3ccccc3)CC2)c2cc(-c3cccc(F)c3)ccc2n1` [Compound 55] it is above 30 µM. On the same count and under the same terms, the result for `COc1cc(F)cc2c(OC3CCN(Cc4ccccc4-c4nnn[nH]4)CC3)cc(C)nc12` [Compound 37, 6-Fluoro-8-methoxy-2-methyl-4-{1-[2-(1H-tetrazol-5-yl)-benzyl]-piperidin-4-yloxy}-quinoline] reads 0.1 to 10 µM.

For `COc1ccc(CC2CCC(Oc3cc(C)nc4c(F)cccc34)CC2)cc1` (stereo not drawn) [Compound 69], the IC50 was above 30 µM. For the compound `Cc1cc(OC2CCN(Cc3ccccc3-c3nnn[nH]3)CC2)c2cc(Br)ccc2n1` [Compound 59], the IC50 was above 30 µM. Still for that read-out and setting: the result for `COc1ccc2cc(CN3CCC(Oc4cc(C)nc5c(F)cccc45)CC3)ccc2c1` [Compound 87] reads 10.1 to 20 µM; that for `Cc1cc(OC2CCN(Cc3ccccc3-c3nnn[nH]3)CC2)c2cc(Cl)ccc2n1` [Compound 100], 0.1 to 10 µM; that for `Cc1cc(OC2CCN(Cc3c(F)cccc3C(=O)O)CC2)c2cc(Br)ccc2n1` [Compound 43], above 30 µM. On the same count and under the same terms, the result for `Cc1cc(OC2CCN(Cc3ccccc3C#N)CC2)c2cc(F)ccc2n1` [Compound 30] reads 10.1 to 20 µM; that for `Cc1cc(OC2CCN(Cc3ccccc3)CC2)c2cc(C#N)ccc2n1` [Compound 46], 20.1 to 30 µM; that for `COc1cc(F)cc2c(OC3CCN(Cc4ccccc4)CC3)cc(C)nc12` [Compound 32], 0.1 to 10 µM.

Regarding `Cc1cc(OC2CCN(Cc3ccc(C(=O)O)cc3)CC2)c2ccccc2n1` [Compound 66], the IC50 is above 30 µM.

As to `c1ccc(CN2CCC(Oc3nccc4ccccc34)CC2)cc1` [Compound 83], the half-maximal inhibitory concentration (IC50) is above 30 µM. Still for that read-out and setting: the figure for `Cc1cc(OC2CCN(Cc3ccc(Br)cc3F)CC2)c2cccc(F)c2n1` [Compound 78] is 20.1 to 30 µM. On the same count and under the same terms, the result for `Cc1cc(OC2CCN(Cc3ccccc3C(=O)NCCCC(=O)OCc3ccccc3)CC2)c2cccc(F)c2n1` [Compound 61] reads 0.1 to 10 µM; that for `Cc1cc(OC2CCN(Cc3ccccc3C(=O)Nc3ccc(C(=O)O)cc3)CC2)c2cccc(F)c2n1` [Compound 54], 0.1 to 10 µM. Consider `COc1cccc2c(OC3CCN(Cc4ccccc4C#N)CC3)cc(C)nc12` [Compound 91], for which the IC50 was above 30 µM.

`Cc1cc(OC2CCN(Cc3ccccc3-c3nnn[nH]3)CC2)c2cccc(F)c2n1` [Compound 50, 4-[1-(2-(1H-tetrazol-5-yl-)benzyl)piperidin-4-yloxy]-8-fluoro2-methylquinoline]: the IC50 is 0.1 to 10 µM.

For `Cc1cc(OC2CCN(Cc3cccc(C(=O)O)c3)CC2)c2cc(O)ccc2n1` [Compound 92], the concentration for half-maximal inhibition (IC50) is above 30 µM. The same measure, in the same setting: the result for `Cc1cc(OC2CCN(Cc3cccc(F)c3)CC2)c2ccccc2n1` [Compound 27] reads 0.1 to 10 µM; that for `Cc1cc(OC2CCN(Cc3ccccc3C(=O)O)C3CCCCC23)c2cccc(F)c2n1` (stereo not drawn) [Compound 82], above 30 µM; that for `Cc1cc(OC2CCN(Cc3ccccc3C#N)CC2)c2cc(C#N)ccc2n1` [Compound 60], above 30 µM.

In the case of `Cc1cc(OC2CCN(Cc3ccccc3C#N)CC2)c2ccccc2n1` [Compound 63], the half-maximal inhibitory concentration (IC50) was above 30 µM. `Cc1cc(OC2CCN(Cc3c(F)cccc3C#N)CC2)c2cc(C#N)ccc2n1` [Compound 45]: the IC50 is above 30 µM. The same measure, in the same setting: the figure for `Cc1cc(OC2CCN(Cc3ccccc3C(=O)O)CC2)c2cc(F)ccc2n1` [Compound 31] is 10.1 to 20 µM; for `COc1ccc(CN2CCC(Oc3cc(C)nc4c(F)cccc34)CC2)c(F)c1` [Compound 47] it is 0.1 to 10 µM; for `Cc1cc(OC2CCN(Cc3c(F)cccc3F)CC2)c2cccc(F)c2n1` [Compound 77] it is 10.1 to 20 µM. Same read-out and setting: the figure for `COc1cc(OC)c(CN2CCC(Oc3cc(C)nc4c(F)cccc34)CC2)c(C(=O)O)c1` [Compound 81] is above 30 µM. Turning to `Cc1cc(OC2CCN(Cc3ccc4ccccc4c3)CC2)c2cccc(F)c2n1` [Compound 84], the IC50 is above 30 µM. Same read-out and setting: the figure for `Cc1cc(OC2CCN(Cc3ccccc3-c3nnn[nH]3)CC2)c2cc(O)ccc2n1` [Compound 56] is 0.1 to 10 µM; for `Cc1cc(OC2CCCN(Cc3ccccc3)CC2)c2cccc(F)c2n1` (stereo not drawn) [Compound 75] it is above 30 µM; for `COc1cc(F)cc2c(OC3CCN(Cc4ccccc4C(=O)O)CC3)cc(C)nc12` [Compound 36, 2-[4-(6-Fluoro-8-methoxy-2-methyl-quinolin-4-yloxy)-piperidin-1-ylmethyl]-benzoic acid] it is 0.1 to 10 µM.

For `Cc1cc(OC2CCN(Cc3ccccc3)CC2)c2cc(F)ccc2n1` [Compound 29], the IC50 is 0.1 to 10 µM.

Regarding `Cc1cc(OC2CCN(Cc3c(F)cccc3C#N)CC2)c2cc(Br)ccc2n1` [Compound 44], the half-maximal inhibitory concentration (IC50) is above 30 µM.

Consider `Cc1cc(OC2CCN(Cc3c(F)cccc3C#N)CC2)c2cccc(F)c2n1` [Compound 42], for which the IC50 was 0.1 to 10 µM. Still for that read-out and setting: the figure for `Cc1cc(OC2CCN(Cc3ccccc3C#N)CC2)c2cc(OC3CCCCO3)ccc2n1` (stereo not drawn) [Compound 52] is above 30 µM. Same read-out and setting: the figure for `COc1ncccc1CN1CCC(Oc2cc(C)nc3c(F)cccc23)CC1` [Compound 71] is 0.1 to 10 µM. Turning to `Cc1cc(OC2CC(C)N(Cc3ccccc3F)C(C)C2)c2ccccc2n1` (stereo not drawn) [Compound 67], the half-inhibitory concentration (IC50) was above 30 µM. The same measure, in the same setting: the figure for `c1ccc(CN2CCC(Oc3c4ccccc4nc4ccccc34)CC2)cc1` [Compound 89] is above 30 µM; for `Cc1cc(OC2CCN(Cc3cccnc3CO)CC2)c2cccc(F)c2n1` [Compound 76] it is above 30 µM. As to `Cc1cc(NC2CCN(Cc3ccccc3)CC2)c2ccccc2n1` [Compound 40], the 50% inhibitory concentration (IC50) was above 30 µM. For `Cc1cc(OC2CCN(Cc3ccc(C(=O)O)cc3)CC2)c2cc(O)ccc2n1` [Compound 96], the half-inhibitory concentration (IC50) is above 30 µM. Same read-out and setting: the result for `COc1ccc(F)c2c(OC3CCN(Cc4ccccc4)CC3)cc(C)nc12` [Compound 33] reads above 30 µM. On the same count and under the same terms, the figure for `Cc1cc(OC2CCN(Cc3ccc(F)c(C#N)c3)CC2)c2ccccc2n1` [Compound 65] is above 30 µM; for `Cc1cc(OC2CCN(Cc3cccc(OCc4ccccc4)c3)CC2)c2ccccc2n1` [Compound 85] it is above 30 µM; for `COc1ccc(CN2CCC(Oc3cc(C)nc4c(F)cccc34)CC2)cn1` [Compound 72] it is above 30 µM.

On to `COc1ccc(F)c2c(OC3CCN(Cc4ccccc4-c4nnn[nH]4)CC3)cc(C)nc12` [Compound 95], for which the IC50 is 0.1 to 10 µM. On the same count and under the same terms, the result for `Cc1cc(OC2CCN(Cc3ccccc3)CC2)c2ccc(F)cc2n1` [Compound 80] reads above 30 µM.
